According to patent US11213030B2, “4-(3,4-dihydronaphth-1-yl or 2H-chromen-4-yl)-5-hydroxy-2H-pyradizin-3-ones as herbicides” (FMC Corporation, priority 2017, dated 2022):

Assays:
Format in all cases: in vivo
kochia (Kochia scoparia) [1] = test: Test A postemergence, kochia; conditions: 0 to 100 scale
Description: (§1) Seeds of plant species selected from barnyardgrass (Echinochloa crus-galli), kochia (Kochia scoparia), ragweed (common ragweed, Ambrosia elatior), ryegrass, It. (Italian ryegrass, Lolium multiflorum), foxtail, green (green foxtail, Setaria viridis), and pigweed (Amaranthus retroflexus) were planted into a blend of loam soil and sand and treated preemergence with a directed soil spray using test chemicals formulated in a non-phytotoxic solvent mixture which included a surfactant. At the same time, plants selected from these weed species and also wheat (Triticum aestivum), corn (Zea mays), blackgrass (Alopecurus myosuroides), and galium (catchweed bedstraw, Galium aparine) were planted in pots containing the same blend of loam soil and sand and treated with postemergence applications of test chemicals formulated in the same manner. Plants ranged in height from 2 to 10 cm and were in the one- to two-leaf stage for the postemergence treatment. Treated plants and untreated controls were maintained in a greenhouse for approximately 10 d, after which time all treated plants were compared to untreated controls and visually evaluated for injury. Plant response ratings, summarized in Table A, are based on a 0 to 100 scale where 0 is no effect and 100 is complete control. A dash (-) response means no test result.

[2] = tested on: ragweed (common ragweed, Ambrosia elatior); test: Test A postemergence, ragweed; conditions: 0 to 100 scale
Description: as §1

corn (Zea mays) = test: Test A postemergence, corn; conditions: 0 to 100 scale
Description: as §1

[3] = tested on: ryegrass, It. (Italian ryegrass, Lolium multiflorum); test: Test A preemergence, Italian ryegrass; conditions: 0 to 100 scale
Description: as §1

rice (Oryza sativa) = test: Test B flooded paddy test, rice; conditions: Flood, 250 g ai/ha applied to paddy water, 2-leaf stage, 13 to 15 d; scale of 0 to 100 where 0 is no effect and 100 is complete control
Protocol: (§2) Plant species in the flooded paddy test selected from rice (Oryza sativa), sedge, umbrella (small-flower umbrella sedge, Cyperus difformis), ducksalad (Heteranthera limosa), and barnyardgrass (Echinochloa crus-galli) were grown to the 2-leaf stage for testing. At the time of treatment, test pots were flooded to 3 cm above the soil surface, treated by application of test compounds directly to the paddy water, and then maintained at that water depth for the duration of the test. Treated plants and controls were maintained in a greenhouse for 13 to 15 d, after which time all species were compared to controls and visually evaluated. Plant response ratings, summarized in Table B, are based on a scale of 0 to 100 where 0 is no effect and 100 is complete control. A dash (-) response means no test result.

[4] = tested on: ducksalad (Heteranthera limosa); test: Test B flooded paddy test, ducksalad; conditions: Flood, 250 g ai/ha applied to paddy water, 2-leaf stage, 13 to 15 d; scale of 0 to 100 where 0 is no effect and 100 is complete control
Protocol: as §2

kochia (Kochia scoparia) [5] = test: Test A preemergence, kochia; conditions: 0 to 100 scale
Description: as §1

[6] = tested on: blackgrass (Alopecurus myosuroides); test: Test A postemergence, blackgrass; conditions: 0 to 100 scale
Description: as §1

[7] = tested on: wheat (Triticum aestivum); test: Test A postemergence, wheat; conditions: 0 to 100 scale
Description: as §1

[8] = tested on: sedge, umbrella (small-flower umbrella sedge, Cyperus difformis); test: Test B flooded paddy test, umbrella sedge; conditions: Flood, 250 g ai/ha applied to paddy water, 2-leaf stage, 13 to 15 d; scale of 0 to 100 where 0 is no effect and 100 is complete control
Protocol: as §2

[9] = tested on: galium (catchweed bedstraw, Galium aparine); test: Test A postemergence, galium; conditions: 0 to 100 scale
Description: as §1

[10] = tested on: ragweed (common ragweed, Ambrosia elatior); test: Test A preemergence, ragweed; conditions: 0 to 100 scale
Description: as §1

[11] = tested on: barnyardgrass (Echinochloa crus-galli); test: Test B flooded paddy test, barnyardgrass; conditions: Flood, 250 g ai/ha applied to paddy water, 2-leaf stage, 13 to 15 d; scale of 0 to 100 where 0 is no effect and 100 is complete control
Protocol: as §2

[12] = tested on: barnyardgrass (Echinochloa crus-galli); test: Test A postemergence, barnyardgrass; conditions: 0 to 100 scale
Description: as §1

Foxtail, Giant [13] = test: Test A preemergence, giant foxtail; conditions: 0 to 100 scale
[14] = tested on: pigweed (Amaranthus retroflexus); test: Test A postemergence, pigweed; conditions: 0 to 100 scale
Description: as §1

[15] = tested on: barnyardgrass (Echinochloa crus-galli); test: Test A preemergence, barnyardgrass; conditions: 0 to 100 scale
Description: as §1

[16] = tested on: ryegrass, It. (Italian ryegrass, Lolium multiflorum); test: Test A postemergence, Italian ryegrass; conditions: 0 to 100 scale; for Plant response rating, Ryegrass, Italian: 500 g ai/ha
Description: as §1

[17] = tested on: pigweed (Amaranthus retroflexus); test: Test A preemergence, pigweed; conditions: 0 to 100 scale
Description: as §1

Foxtail, Giant [18] = test: Test A postemergence, giant foxtail; conditions: 0 to 100 scale
[19] = tested on: foxtail, green (green foxtail, Setaria viridis); test: Test A postemergence, green foxtail; conditions: 0 to 100 scale
Description: as §1

[20] = tested on: foxtail, green (green foxtail, Setaria viridis); test: Test A preemergence, green foxtail; conditions: 0 to 100 scale
Description: as §1

COc1c(C)nn(C)c(=O)c1C1=CCC(C)(C)c2ccccc21 [Compound 6]
Plant response rating, Kochia (kochia (Kochia scoparia) [1]; 125 g ai/ha): 0 | Plant response rating, Kochia (kochia (Kochia scoparia) [1]; 500 g ai/ha): 0 | Plant response rating, Ragweed ([2]; 125 g ai/ha): 0 | Plant response rating, Ragweed ([2]; 500 g ai/ha): 20 | Plant response rating, Corn (corn (Zea mays); 125 g ai/ha): 0 | Plant response rating, Corn (corn (Zea mays); 500 g ai/ha): 0 | Plant response rating, Ryegrass, It. ([3]; 125 g ai/ha): 0 | Plant response rating, Ryegrass, It. ([3]; 500 g ai/ha): 0 | Plant response rating, Rice (rice (Oryza sativa)): 0 | Plant response rating, Ducksalad [4]: 0 | Plant response rating, Kochia (kochia (Kochia scoparia) [5]; 125 g ai/ha): 0 | Plant response rating, Kochia (kochia (Kochia scoparia) [5]; 500 g ai/ha): 40 | Plant response rating, Blackgrass ([6]; 125 g ai/ha): 0 | Plant response rating, Blackgrass ([6]; 500 g ai/ha): 20 | Plant response rating, Wheat ([7]; 125 g ai/ha): 0 | Plant response rating, Wheat ([7]; 500 g ai/ha): 0 | Plant response rating, Sedge, Umbrella [8]: 0 | Plant response rating, Galium ([9]; 125 g ai/ha): 0 | Plant response rating, Galium ([9]; 500 g ai/ha): 0 | Plant response rating, Ragweed ([10]; 125 g ai/ha): 0 | Plant response rating, Ragweed ([10]; 500 g ai/ha): 0 | Plant response rating, Barnyardgrass [11]: 0 | Plant response rating, Barnyardgrass ([12]; 125 g ai/ha): 0 | Plant response rating, Barnyardgrass ([12]; 500 g ai/ha): 0 | Plant response rating, Foxtail, Giant (Foxtail, Giant [13]; 125 g ai/ha): 0 | Plant response rating, Foxtail, Giant (Foxtail, Giant [13]; 500 g ai/ha): 0 | Plant response rating, Pigweed ([14]; 125 g ai/ha): 0 | Plant response rating, Pigweed ([14]; 500 g ai/ha): 0 | Plant response rating, Barnyardgrass ([15]; 125 g ai/ha): 0 | Plant response rating, Barnyardgrass ([15]; 500 g ai/ha): 30 | Plant response rating, Ryegrass, Italian [16]: 0 | Plant response rating, Pigweed ([17]; 125 g ai/ha): 0 | Plant response rating, Pigweed ([17]; 500 g ai/ha): 0 | Plant response rating, Foxtail, Giant (Foxtail, Giant [18]; 125 g ai/ha): 0 | Plant response rating, Foxtail, Giant (Foxtail, Giant [18]; 500 g ai/ha): 0

CC(=O)Oc1c(C)nn(C)c(=O)c1C1=C(C)CCc2ccccc21 [Compound 5]
Plant response rating, Kochia (kochia (Kochia scoparia) [1]; 31 g ai/ha): 70 | Plant response rating, Kochia (kochia (Kochia scoparia) [1]; 125 g ai/ha): 80 | Plant response rating, Ragweed ([2]; 31 g ai/ha): 30 | Plant response rating, Ragweed ([2]; 125 g ai/ha): 80 | Plant response rating, Foxtail, Green ([19]; 31 g ai/ha): 20 | Plant response rating, Foxtail, Green ([19]; 125 g ai/ha): 40 | Plant response rating, Corn (corn (Zea mays); 31 g ai/ha): 20 | Plant response rating, Corn (corn (Zea mays); 125 g ai/ha): 20 | Plant response rating, Ryegrass, It. ([3]; 31 g ai/ha): 40 | Plant response rating, Ryegrass, It. ([3]; 125 g ai/ha): 70 | Plant response rating, Rice (rice (Oryza sativa)): 0 | Plant response rating, Foxtail, Green ([20]; 31 g ai/ha): 0 | Plant response rating, Foxtail, Green ([20]; 125 g ai/ha): 0 | Plant response rating, Ducksalad [4]: 0 | Plant response rating, Kochia (kochia (Kochia scoparia) [5]; 31 g ai/ha): 0 | Plant response rating, Kochia (kochia (Kochia scoparia) [5]; 125 g ai/ha): 10 | Plant response rating, Blackgrass ([6]; 31 g ai/ha): 0 | Plant response rating, Blackgrass ([6]; 125 g ai/ha): 30 | Plant response rating, Wheat ([7]; 31 g ai/ha): 0 | Plant response rating, Wheat ([7]; 125 g ai/ha): 0 | Plant response rating, Sedge, Umbrella [8]: 0 | Plant response rating, Galium ([9]; 31 g ai/ha): 90 | Plant response rating, Galium ([9]; 125 g ai/ha): 90 | Plant response rating, Ragweed ([10]; 31 g ai/ha): 20 | Plant response rating, Ragweed ([10]; 125 g ai/ha): 80 | Plant response rating, Barnyardgrass [11]: 0 | Plant response rating, Barnyardgrass ([12]; 31 g ai/ha): 20 | Plant response rating, Barnyardgrass ([12]; 125 g ai/ha): 30 | Plant response rating, Pigweed ([14]; 31 g ai/ha): 70 | Plant response rating, Pigweed ([14]; 125 g ai/ha): 100 | Plant response rating, Barnyardgrass ([15]; 31 g ai/ha): 20 | Plant response rating, Barnyardgrass ([15]; 125 g ai/ha): 0 | Plant response rating, Ryegrass, It. ([16]; 31 g ai/ha): 70 | Plant response rating, Ryegrass, It. ([16]; 125 g ai/ha): 80 | Plant response rating, Pigweed ([17]; 31 g ai/ha): 20 | Plant response rating, Pigweed ([17]; 125 g ai/ha): 100

Cc1nn(C)c(=O)c(C2=CCC(C)(C)c3ccccc32)c1O [Compound 7]
Plant response rating, Kochia (kochia (Kochia scoparia) [1]; 125 g ai/ha): 30 | Plant response rating, Kochia (kochia (Kochia scoparia) [1]; 500 g ai/ha): 70 | Plant response rating, Ragweed ([2]; 125 g ai/ha): 0 | Plant response rating, Ragweed ([2]; 500 g ai/ha): 70 | Plant response rating, Corn (corn (Zea mays); 125 g ai/ha): 0 | Plant response rating, Corn (corn (Zea mays); 500 g ai/ha): 10 | Plant response rating, Ryegrass, It. ([3]; 125 g ai/ha): 0 | Plant response rating, Ryegrass, It. ([3]; 500 g ai/ha): 10 | Plant response rating, Rice (rice (Oryza sativa)): 0 | Plant response rating, Ducksalad [4]: 0 | Plant response rating, Kochia (kochia (Kochia scoparia) [5]; 125 g ai/ha): 0 | Plant response rating, Kochia (kochia (Kochia scoparia) [5]; 500 g ai/ha): 0 | Plant response rating, Blackgrass ([6]; 125 g ai/ha): 10 | Plant response rating, Blackgrass ([6]; 500 g ai/ha): 10 | Plant response rating, Wheat ([7]; 125 g ai/ha): 0 | Plant response rating, Wheat ([7]; 500 g ai/ha): 0 | Plant response rating, Sedge, Umbrella [8]: 0 | Plant response rating, Galium ([9]; 125 g ai/ha): 50 | Plant response rating, Galium ([9]; 500 g ai/ha): 70 | Plant response rating, Ragweed ([10]; 125 g ai/ha): 0 | Plant response rating, Ragweed ([10]; 500 g ai/ha): 0 | Plant response rating, Barnyardgrass [11]: 0 | Plant response rating, Barnyardgrass ([12]; 125 g ai/ha): 10 | Plant response rating, Barnyardgrass ([12]; 500 g ai/ha): 30 | Plant response rating, Foxtail, Giant (Foxtail, Giant [13]; 125 g ai/ha): 0 | Plant response rating, Foxtail, Giant (Foxtail, Giant [13]; 500 g ai/ha): 0 | Plant response rating, Pigweed ([14]; 125 g ai/ha): 80 | Plant response rating, Pigweed ([14]; 500 g ai/ha): 90 | Plant response rating, Barnyardgrass ([15]; 125 g ai/ha): 0 | Plant response rating, Barnyardgrass ([15]; 500 g ai/ha): 0 | Plant response rating, Ryegrass, It. ([16]; 125 g ai/ha): 30 | Plant response rating, Ryegrass, Italian [16]: 80 | Plant response rating, Pigweed ([17]; 125 g ai/ha): 0 | Plant response rating, Pigweed ([17]; 500 g ai/ha): 10 | Plant response rating, Foxtail, Giant (Foxtail, Giant [18]; 125 g ai/ha): 0 | Plant response rating, Foxtail, Giant (Foxtail, Giant [18]; 500 g ai/ha): 10
